According to PMC10442857, “Cellular Uptake of a Fluorescent Ligand Reveals Ghrelin O-Acyltransferase Interacts with Extracellular Peptides and Exhibits Unexpected Localization for a Secretory Pathway Enzyme” (ACS Chemical Biology, 2023):
Where two headings read alike, the source gives them in different places. Square brackets hold non-standard residues; d marks the D form. Peptide text beside a SMILES is read from it. * marks the point of attachment. X1 = CN1/C(=C/C=C/C=C/C2=[N+](CCCCCC(=O)*)c3ccc(S(=O)(=O)[O-])cc3C2(C)C)C(C)(C)c2cc(S(=O)(=O)O)ccc21; 1Nal = N[C@@H](Cc1cccc2ccccc12)C(=O)O; X2 = O=C(c1ccc2cc(F)ccc2c1)*; Octanoyl = CCCCCCCC(=O)*; Dap = NC[C@H](N)C(=O)O; Inp = O=C(O)C1CCNCC1

Experiments:
hGOAT = target: T1, hGOAT (Homo sapiens, UniProt Q96T53); experiment: hGOAT inhibition assay (octanoylation of GSSFLCAcDan by Sf9 membrane fraction expressing hGOAT, HPLC fluorescence); format: biochemical; conditions: read-out: IC50 against hGOAT
T1 construct: 3xHA (C); FLAG (C); His6 (C); made in house; host or cells: Sf9 insect cells (baculovirus), crude membrane fraction
T1 sequence (Q96T53 1-435): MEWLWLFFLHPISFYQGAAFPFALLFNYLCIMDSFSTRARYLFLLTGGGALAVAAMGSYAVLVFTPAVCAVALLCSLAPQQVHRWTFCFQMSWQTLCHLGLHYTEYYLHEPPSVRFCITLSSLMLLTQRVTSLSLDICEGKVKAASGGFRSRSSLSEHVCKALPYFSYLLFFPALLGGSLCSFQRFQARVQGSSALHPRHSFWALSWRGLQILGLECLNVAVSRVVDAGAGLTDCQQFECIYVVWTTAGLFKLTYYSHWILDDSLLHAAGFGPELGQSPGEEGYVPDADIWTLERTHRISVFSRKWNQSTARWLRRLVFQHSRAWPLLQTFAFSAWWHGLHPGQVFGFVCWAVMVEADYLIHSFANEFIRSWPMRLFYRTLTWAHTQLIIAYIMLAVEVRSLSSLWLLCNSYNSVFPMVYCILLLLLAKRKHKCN
Method: Assays were performed using previously reported protocols,[57],[58] as described in the Supporting Information. […]
hGOAT inhibition assays. Assays were performed using previously reported protocols.2-3 For each assay, membrane fraction from Sf9 cells expressing hGOAT was thawed on ice and homogenized by passage through an 18-gauge needle 10 times. Assays were performed with 50 µg of membrane protein, as determined by Bradford assay. Membrane fraction was pre-incubated with 1 µM methyl […]
arachidonyl fluorophosphonate (MAFP) and unlabeled peptide inhibitor or vehicle as indicated in 50 mM HEPES pH 7.0 for 30 minutes at room temperature prior to reaction initiation.4 All reactions were initiated by the addition of 1.5 µM GSSFLCAcDan and 300 µM octanoyl CoA.
Reactions were incubated for 30 minutes at room temperature under foil. All assays were stopped with the addition of 50 µL of 20% acetic acid in isopropanol, and solutions were clarified by protein precipitation with 16.7 µL of 20% trichloroacetic acid, followed by centrifugation (1,000 x g, 2 minutes). The supernatant was then analyzed using reverse-phase HPLC with fluorescence detection as previously described.2-3 Peak integrations for both substrate and product peaks were calculated using Chemstation for LC (Agilent Technologies). Data reported are the average of three independent determinations, with error reported as standard deviation.
For determination of IC50 values, the percent activity at each inhibitor concentration was calculated from HPLC integration data using equations 1 and 2: To determine an IC50 value for a given inhibitor, the plot of % activity versus [inhibitor] was fit to equation 3, with % activity0 denoting hGOAT activity in the presence of the vehicle alone. All reported IC50 values represent the average of a minimum of three independent trials.
(1) % activity = % peptide acylation in presence of inhibitor
% peptide acylation in absence of inhibitor
(2) % peptide octanoylation = Fluorescence of acylated peptide
Total peptide fluorescence (acylated and non-acylated)
(3) % activity = % activity * (1- [inhibitor] )

[1] = target: human ghrelin O-acyltransferase (hGOAT) of the hGOAT inhibition assays (human) (UniProt Q96T53)
GHSR (GHS-R1a) [2] = target: T2, GHSR (GHS-R1a) (Homo sapiens, UniProt Q92847); parameters: method as in Charron et al.[22]; conditions: ref Charron et al.[22]; read-out: IC50 against GHSR; cited from earlier work
T2 construct: expressed in transfected cells; host or cells: HEK 293 cells transfected with GHS-R1a (membrane suspension)
Target sequence in this assay (Q92847 whole entry, species assumed): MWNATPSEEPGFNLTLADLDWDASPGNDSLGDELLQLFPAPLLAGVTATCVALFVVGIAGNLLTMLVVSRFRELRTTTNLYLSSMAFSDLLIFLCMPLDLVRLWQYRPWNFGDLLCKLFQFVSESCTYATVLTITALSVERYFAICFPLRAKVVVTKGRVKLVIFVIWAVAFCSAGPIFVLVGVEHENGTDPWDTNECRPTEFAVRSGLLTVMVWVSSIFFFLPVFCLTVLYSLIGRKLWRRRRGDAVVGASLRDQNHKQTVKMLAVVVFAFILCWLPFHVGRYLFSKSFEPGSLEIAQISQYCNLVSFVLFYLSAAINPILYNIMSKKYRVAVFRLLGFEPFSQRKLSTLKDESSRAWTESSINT

GHSR (GHS-R1a) [3] = target: T2, GHSR (GHS-R1a); experiment: biochemical; format: binding; conditions: for IC50: lower limit from test at 100 µM, read-out: IC50 against GHSR
Method: Peptide binding affinity for the ghrelin receptor was determined using a competitive radioligand-displacement binding assay,[22] with details provided in the Supporting Information. […]
GHSR receptor binding assays. Peptide binding affinity for the ghrelin receptor was determined using a competitive radioligand-displacement binding assay.1 Assays were performed using GHS-R1a transfected HEK 293 cells as the receptor source and human His[125I]-ghrelin(1−28) (PerkinElmer Inc. NEX388010UC ) as the radioligand. Human ghrelin(1−28) was used as a reference to ensure the validity of the results. A suspension of membrane from HEK 293/GHS-R1a cells (100,000 cells per assay tube) were incubated with ghrelin(1−8) peptide analogues (at […]
ghrelin (15 pM per assay tube) in binding buffer (25 mM HEPES, 5 mM magnesium chloride, 1 mM calcium chloride, 2.5 mM EDTA, and 0.4% BSA, pH 7.4). The resulting suspension was incubated for 20 min under shaking (550 rpm) at 37 °C. Unbound [ 125I]-ghrelin was removed and the amount of [ 125I]-ghrelin bound to the membranes was measured by γ counter. IC 50 values were determined by nonlinear regression analysis to fit a four-parameter dose−response curve using Prism 6 (version 6.0c). All binding assays were performed in triplicate. […]

[4] = target: T3, human ghrelin O-acyltransferase (hGOAT) of the hGOAT inhibition assays (human, UniProt Q96T53 1-435); experiment: cell-based or functional assay
T3 sequence (looked up): T1 sequence (Q96T53 1-435)

[5] = average of three independent trials ± one standard deviation

## CC(C)C[C@H](NC(=O)[C@H](Cc1cccc2ccccc12)NC(=O)[C@H](CNC(=O)c1ccc2cc(F)ccc2c1)NC(=O)[C@H](CO)NC(=O)C1CCNCC1)C(=O)N[C@@H](CO)C(=O)N1CCC[C@H]1C(=O)N[C@H](C(N)=O)[C@@H](C)O [ligand 14] (H-[Inp]S[Dap](X2)[1Nal]LSPT-NH2)
hGOAT
  IC50: > 100000 nM

## ligand 3, H-GS-(6FN-Dap)-FLSPY-NH2 (peptide)
[1]
  inhibition of hGOAT activity (IC50 against hGOAT): > 100000 nM

## CC(C)C[C@H](NC(=O)[C@H](Cc1ccccc1)NC(=O)[C@H](CNC(=O)c1ccc2cc(F)ccc2c1)NC(=O)[C@H](CO)NC(=O)CN)C(=O)N[C@@H](CO)C(=O)N1CCC[C@H]1C(=O)N[C@@H](Cc1ccc(O)cc1)C(N)=O [ligand 3, H-GS-(6FN-Dap)-FLSPY-NH2] (H-GS[Dap](X2)FLSPY-NH2)
GHSR (GHS-R1a) [2]
  IC50: 9.9 nM
GHSR (GHS-R1a) [3]; from IC50 values of Table 1
  selectivity for GHSR binding over GOAT: > 100 fold
hGOAT
  IC50: > 100000 nM

## ligand 10, H-GS-(C8-Dap)-FLSPN-NH2 (peptide)
[1]
  inhibition of hGOAT activity (IC50 against hGOAT): 59 nM

## ligand 2, H-GS-(C8-Dap)-FLSPY-NH2 (peptide)
[1]
  inhibition of hGOAT activity (IC50 against hGOAT): 64 nM

## CC(C)C[C@H](NC(=O)[C@H](Cc1ccccc1)NC(=O)[C@H](CN)NC(=O)[C@H](CO)NC(=O)CN)C(=O)N[C@@H](CO)C(=O)N1CCC[C@H]1C(=O)N[C@@H](Cc1ccc(O)cc1)C(N)=O [ligand 1, H-GS-Dap-FLSPY-NH2] (HELM PEPTIDE1{G.S.[NC[C@H](N[*:1])C(=O)[*:2]].F.L.S.P.Y.[am]}$$$$V2.0)
GHSR (GHS-R1a) [3]
  IC50: ≥ 100 µM

## CC(C)C[C@H](NC(=O)[C@H](Cc1ccccc1)NC(=O)[C@H](CN)NC(=O)[C@H](CO)NC(=O)C1CCNCC1)C(=O)N[C@@H](CO)C(=O)N1CCC[C@H]1C(=O)N[C@@H](Cc1ccc(O)cc1)C(N)=O [ligand 5, H-Inp-S-Dap-FLSPY-NH2] (HELM PEPTIDE1{[O=C(C1CCNCC1)[*:2]].S.[NC[C@H](N[*:1])C(=O)[*:2]].F.L.S.P.Y.[am]}$$$$V2.0)
GHSR (GHS-R1a) [3]
  IC50: ≥ 100 µM
hGOAT
  IC50: > 100000 nM

## CCCCCCCC(=O)NC[C@H](NC(=O)[C@H](CO)NC(=O)CN)C(=O)N[C@@H](Cc1ccccc1)C(=O)N[C@@H](CC(C)C)C(=O)N[C@@H](CO)C(=O)N1CCC[C@H]1C(=O)N[C@@H](CCC(=O)O)C(N)=O [ligand 9, H-GS-(C8-Dap)-FLSPE-NH2]
GHSR (GHS-R1a) [2]
  IC50: 200 nM
hGOAT; [5]
  IC50: 580 ± 60 nM

## H-Aib-S-(6FN-Dap)-FLSPY-NH2 [ligand 6]
GHSR (GHS-R1a) [2]
  IC50: 9.2 nM

## CC(C)C[C@H](NC(=O)[C@H](Cc1ccccc1)NC(=O)[C@H](CN)NC(=O)[C@H](CO)NC(=O)C(C)(C)N)C(=O)N[C@@H](CO)C(=O)N1CCC[C@H]1C(=O)N[C@@H](Cc1ccc(O)cc1)C(N)=O [ligand 4, H-Aib-S-Dap-FLSPY-NH2] (HELM PEPTIDE1{[Aib].S.[NC[C@H](N[*:1])C(=O)[*:2]].F.L.S.P.Y.[am]}$$$$V2.0)
GHSR (GHS-R1a) [3]
  IC50: ≥ 100 µM
hGOAT
  IC50: > 100000 nM

## H-Inp-S-(6FN-Dap)-FLSPY-NH2 [ligand 7]
GHSR (GHS-R1a) [2]
  IC50: 9.6 nM

## CC(C)C[C@H](NC(=O)[C@H](Cc1ccc2ccccc2c1)NC(=O)[C@H](CN)NC(=O)[C@H](CO)NC(=O)CN)C(=O)N[C@@H](CO)C(=O)N1CCC[C@H]1C(=O)N[C@H](C(N)=O)[C@@H](C)O [ligand 13, H-GS-Dap-Nal-2-LSPT-NH2] (HELM PEPTIDE1{G.S.[NC[C@H](N[*:1])C(=O)[*:2]].[O=C([C@H](Cc1ccc2ccccc2c1)N[*:1])[*:2]].L.S.P.T.[am]}$$$$V2.0)
GHSR (GHS-R1a) [3]
  IC50: ≥ 100 µM

## ligand 11, H-GS-(C8-Dap)-FLSPT-NH2 (peptide)
[1]
  inhibition of hGOAT activity (IC50 against hGOAT): 27 nM

## ligand 9, H-GS-(C8-Dap)-FLSPE-NH2 (peptide)
[1]
  inhibition of hGOAT activity (IC50 against hGOAT): 580 nM

## CCCCCCCC(=O)NC[C@H](NC(=O)[C@H](CO)NC(=O)CN)C(=O)N[C@@H](Cc1ccccc1)C(=O)N[C@@H](CC(C)C)C(=O)N[C@@H](CO)C(=O)N1CCC[C@H]1C(=O)N[C@@H](Cc1ccc(O)cc1)C(N)=O [ligand 2, H-GS-(C8-Dap)-FLSPY-NH2] (H-GS[Dap](Octanoyl)FLSPY-NH2)
GHSR (GHS-R1a) [2]
  IC50: 65 nM
hGOAT; [5]
  IC50: 64 ± 21 nM

## CCCCCCCC(=O)NC[C@H](NC(=O)[C@H](CO)NC(=O)CN)C(=O)N[C@@H](Cc1ccccc1)C(=O)N[C@@H](CC(C)C)C(=O)N[C@@H](CO)C(=O)N1CCC[C@H]1C(=O)N[C@H](C(N)=O)[C@@H](C)O [ligand 11, H-GS-(C8-Dap)-FLSPT-NH2] (H-GS[Dap](Octanoyl)FLSPT-NH2)
GHSR (GHS-R1a) [2]
  IC50: 3.3 nM
hGOAT; [5]
  IC50: 27 ± 8 nM

## CCCCCCCC(=O)NC[C@H](NC(=O)[C@H](CO)NC(=O)CN)C(=O)N[C@@H](Cc1ccccc1)C(=O)N[C@@H](CC(C)C)C(=O)N[C@@H](CO)C(=O)N1CCC[C@H]1C(=O)N[C@@H](CC(N)=O)C(N)=O [ligand 10, H-GS-(C8-Dap)-FLSPN-NH2] (H-GS[Dap](Octanoyl)FLSPN-NH2)
GHSR (GHS-R1a) [2]
  IC50: 31.9 nM
hGOAT; [5]
  IC50: 59 ± 7 nM

## CC(C)C[C@H](NC(=O)[C@H](Cc1cccc2ccccc12)NC(=O)[C@H](CN)NC(=O)[C@H](CO)NC(=O)CN)C(=O)N[C@@H](CO)C(=O)N1CCC[C@H]1C(=O)N[C@H](C(=O)N[C@@H](CCCCNC(=O)CCCCC[N+]1=C(/C=C/C=C/C=C2/N(C)c3ccc(S(=O)(=O)O)cc3C2(C)C)C(C)(C)c2cc(S(=O)(=O)[O-])ccc21)C(N)=O)[C@@H](C)O [ligand 15, H-GS-Dap-Nal-1-LSPTK(SulfoCy5)-NH2] (H-GS[Dap][1Nal]LSPTK(X1)-NH2)
hGOAT; [5]
  IC50: 17 ± 2 nM

B1: ligand 1, H-GS-Dap-FLSPY-NH2 (peptide)
chain: GSXFLSPY
HELM: PEPTIDE1{G.S.[NC[C@H](N[*:1])C(=O)[*:2]].F.L.S.P.Y.[am]}$$$$V2.0
SMILES: CC(C)C[C@H](NC(=O)[C@H](Cc1ccccc1)NC(=O)[C@H](CN)NC(=O)[C@H](CO)NC(=O)CN)C(=O)N[C@@H](CO)C(=O)N1CCC[C@H]1C(=O)N[C@@H](Cc1ccc(O)cc1)C(N)=O
[4]
  inhibition of hGOAT activity (IC50 against hGOAT): 104 nM

B2: ligand 13, H-GS-Dap-Nal-2-LSPT-NH2 (peptide)
chain: GSXXLSPT
HELM: PEPTIDE1{G.S.[NC[C@H](N[*:1])C(=O)[*:2]].[O=C([C@H](Cc1ccc2ccccc2c1)N[*:1])[*:2]].L.S.P.T.[am]}$$$$V2.0
SMILES: CC(C)C[C@H](NC(=O)[C@H](Cc1ccc2ccccc2c1)NC(=O)[C@H](CN)NC(=O)[C@H](CO)NC(=O)CN)C(=O)N[C@@H](CO)C(=O)N1CCC[C@H]1C(=O)N[C@H](C(N)=O)[C@@H](C)O
[4]
  inhibition of hGOAT activity (IC50 against hGOAT): 16 nM
